ChEMBL document CHEMBL3046007, “Isonicotinic acid hydrazide derivatives: synthesis, antimicrobial activity, and QSAR studies” (Med Chem Res, 2012)
Values after ≈ are worked out from the molar mass of the structure shown.

Test system: Candida albicans
Test: Antimicrobial activity against Candida albicans after 48 hr by serial dilution method
Type: functional
Conditions: not given

Structure (SMILES) | -logMIC
CC(Cl)C(=O)NNC(=O)c1ccncc1 (stereo not given) | 2.26
COc1cc(/C=N/NC(=O)c2ccncc2)cc(OC)c1OC | 2.4
CSc1ccc(/C=N/NC(=O)c2ccncc2)cc1 | 2.34
O=C(N/N=C/c1c[nH]c2ccccc12)c1ccncc1 | 2.63
COc1cc(/C=N/N(C(=O)c2ccccc2)C(=O)c2ccncc2)ccc1O | 3.08

Test system: Coxsackievirus B4
Test: Antiviral activity against Human coxsackievirus B4 infected Vero cells assessed as inhibition of virus-induced cytopathicity
Type: functional, organism-based
Conditions: Enterovirus B

Structure (SMILES) | EC50 [mg/L]
COc1cc(/C=N/NC(=O)c2ccncc2)cc(OC)c1OC | > 100
CSc1ccc(/C=N/NC(=O)c2ccncc2)cc1 | 9 (≈ 33.2 µM)
O=C(N/N=C/c1c[nH]c2ccccc12)c1ccncc1 | 45 (≈ 170 µM)
COc1cc(/C=N/N(C(=O)c2ccccc2)C(=O)c2ccncc2)ccc1O | > 100

Test system: Vesicular stomatitis virus
Test: Antiviral activity against Vesicular stomatitis virus infected human HeLa cells assessed as inhibition of virus-induced cytopathicity
Type: functional, organism-based
Conditions: not given

Structure (SMILES) | EC50 [mg/L]
COc1cc(/C=N/NC(=O)c2ccncc2)cc(OC)c1OC | > 100
CSc1ccc(/C=N/NC(=O)c2ccncc2)cc1 | > 20
O=C(N/N=C/c1c[nH]c2ccccc12)c1ccncc1 | > 100
COc1cc(/C=N/N(C(=O)c2ccccc2)C(=O)c2ccncc2)ccc1O | > 20

Test system: Human immunodeficiency virus 1
Test: Antiviral activity against Human immunodeficiency virus 1 IIIB infected human MT4 cells assessed as inhibition of virus-induced cytopathicity
Type: functional, organism-based
Conditions: not given

Structure (SMILES) | EC50 [mg/L]
CC(Cl)C(=O)NNC(=O)c1ccncc1 (stereo not given) | > 77.5
COc1cc(/C=N/NC(=O)c2ccncc2)cc(OC)c1OC | > 110
CSc1ccc(/C=N/NC(=O)c2ccncc2)cc1 | > 59
O=C(N/N=C/c1c[nH]c2ccccc12)c1ccncc1 | > 95
COc1cc(/C=N/N(C(=O)c2ccccc2)C(=O)c2ccncc2)ccc1O | > 105

Test system: not listed separately
Test: Cytotoxicity against Homo sapiens (human) HeLa cells
Type: cell-based
Conditions: not given

Structure (SMILES) | MCC [µg/mL]
COc1cc(/C=N/NC(=O)c2ccncc2)cc(OC)c1OC | ≥ 100
CSc1ccc(/C=N/NC(=O)c2ccncc2)cc1 | 100
O=C(N/N=C/c1c[nH]c2ccccc12)c1ccncc1 | ≥ 100
COc1cc(/C=N/N(C(=O)c2ccccc2)C(=O)c2ccncc2)ccc1O | 100

Test system: Sindbis virus
Test: Antiviral activity against Sindbis virus infected Vero cells assessed as inhibition of virus-induced cytopathicity
Type: functional, organism-based
Conditions: not given

Structure (SMILES) | EC50 [mg/L]
COc1cc(/C=N/NC(=O)c2ccncc2)cc(OC)c1OC | > 100
CSc1ccc(/C=N/NC(=O)c2ccncc2)cc1 | > 100
O=C(N/N=C/c1c[nH]c2ccccc12)c1ccncc1 | > 100
COc1cc(/C=N/N(C(=O)c2ccccc2)C(=O)c2ccncc2)ccc1O | > 100

Test system: not listed separately
Test: Cytotoxicity against Homo sapiens (human) HEL cells
Type: cell-based
Conditions: not given

Structure (SMILES) | MCC [µg/mL]
COc1cc(/C=N/NC(=O)c2ccncc2)cc(OC)c1OC | > 100
CSc1ccc(/C=N/NC(=O)c2ccncc2)cc1 | > 100
O=C(N/N=C/c1c[nH]c2ccccc12)c1ccncc1 | > 100
COc1cc(/C=N/N(C(=O)c2ccccc2)C(=O)c2ccncc2)ccc1O | > 100

Test system: Escherichia coli
Test: Antimicrobial activity against Escherichia coli after 24 hr by serial dilution method
Type: functional
Conditions: not given

Structure (SMILES) | -logMIC
CC(Cl)C(=O)NNC(=O)c1ccncc1 (stereo not given) | 2.26
COc1cc(/C=N/NC(=O)c2ccncc2)cc(OC)c1OC | 2.1
CSc1ccc(/C=N/NC(=O)c2ccncc2)cc1 | 2.34
O=C(N/N=C/c1c[nH]c2ccccc12)c1ccncc1 | 2.02
COc1cc(/C=N/N(C(=O)c2ccccc2)C(=O)c2ccncc2)ccc1O | 2.48

Test system: Coxsackievirus B4
Test: Antiviral activity against Human coxsackievirus B4 infected human HeLa cells assessed as inhibition of virus-induced cytopathicity
Type: functional, organism-based
Conditions: Enterovirus B

Structure (SMILES) | EC50 [mg/L]
COc1cc(/C=N/NC(=O)c2ccncc2)cc(OC)c1OC | > 100
CSc1ccc(/C=N/NC(=O)c2ccncc2)cc1 | > 20
O=C(N/N=C/c1c[nH]c2ccccc12)c1ccncc1 | > 100
COc1cc(/C=N/N(C(=O)c2ccccc2)C(=O)c2ccncc2)ccc1O | > 20

Test system: not listed separately
Test: Cytotoxicity against Homo sapiens (human) MT4 cells
Type: cell-based
Conditions: not given

Structure (SMILES) | CC50 [mg/L]
CC(Cl)C(=O)NNC(=O)c1ccncc1 (stereo not given) | 77.5 (≈ 340 µM)
COc1cc(/C=N/NC(=O)c2ccncc2)cc(OC)c1OC | 110 (≈ 349 µM)
CSc1ccc(/C=N/NC(=O)c2ccncc2)cc1 | 59 (≈ 217 µM)
O=C(N/N=C/c1c[nH]c2ccccc12)c1ccncc1 | 95 (≈ 359 µM)
COc1cc(/C=N/N(C(=O)c2ccccc2)C(=O)c2ccncc2)ccc1O | 105 (≈ 280 µM)

Test system: Vaccinia virus
Test: Antiviral activity against Vaccinia virus infected human HEL cells assessed as inhibition of virus-induced cytopathicity
Type: functional, organism-based
Conditions: Orthopoxvirus vaccinia

Structure (SMILES) | EC50 [mg/L]
COc1cc(/C=N/NC(=O)c2ccncc2)cc(OC)c1OC | > 100
CSc1ccc(/C=N/NC(=O)c2ccncc2)cc1 | > 100
O=C(N/N=C/c1c[nH]c2ccccc12)c1ccncc1 | > 100
COc1cc(/C=N/N(C(=O)c2ccccc2)C(=O)c2ccncc2)ccc1O | > 100

Test system: Human alphaherpesvirus 1
Test: Antiviral activity against Human herpesvirus 1 strain KOS infected in human HEL cells assessed as inhibition of virus-induced cytopathicity
Type: functional, organism-based
Conditions: Human alphaherpesvirus 1, KOS

Structure (SMILES) | EC50 [mg/L]
COc1cc(/C=N/NC(=O)c2ccncc2)cc(OC)c1OC | > 100
CSc1ccc(/C=N/NC(=O)c2ccncc2)cc1 | > 100
O=C(N/N=C/c1c[nH]c2ccccc12)c1ccncc1 | > 100
COc1cc(/C=N/N(C(=O)c2ccccc2)C(=O)c2ccncc2)ccc1O | > 100

Test system: Human alphaherpesvirus 1
Test: Antiviral activity against TK(-) aciclovir-resistant Human herpesvirus 1 strain KOS infected in human HEL cells assessed as inhibition of virus-induced cytopathicity
Type: functional, organism-based
Conditions: Human alphaherpesvirus 1, KOS

Structure (SMILES) | EC50 [mg/L]
COc1cc(/C=N/NC(=O)c2ccncc2)cc(OC)c1OC | > 100
CSc1ccc(/C=N/NC(=O)c2ccncc2)cc1 | > 100
O=C(N/N=C/c1c[nH]c2ccccc12)c1ccncc1 | > 100
COc1cc(/C=N/N(C(=O)c2ccccc2)C(=O)c2ccncc2)ccc1O | > 100

Test system: not listed separately
Test: Cytotoxicity against Chlorocebus aethiops (African green monkey) Vero cells assessed as alteration in cell morphology
Type: cell-based
Conditions: chlorocebus sabaeus

Structure (SMILES) | MCC [µg/mL]
COc1cc(/C=N/NC(=O)c2ccncc2)cc(OC)c1OC | > 100
CSc1ccc(/C=N/NC(=O)c2ccncc2)cc1 | ≥ 100
O=C(N/N=C/c1c[nH]c2ccccc12)c1ccncc1 | > 100
COc1cc(/C=N/N(C(=O)c2ccccc2)C(=O)c2ccncc2)ccc1O | ≥ 100

Test system: Respiratory syncytial virus
Test: Antiviral activity against Respiratory syncytial virus infected human HeLa cells assessed as inhibition of virus-induced cytopathicity
Type: functional, organism-based
Conditions: not given

Structure (SMILES) | EC50 [mg/L]
COc1cc(/C=N/NC(=O)c2ccncc2)cc(OC)c1OC | > 100
CSc1ccc(/C=N/NC(=O)c2ccncc2)cc1 | > 20
O=C(N/N=C/c1c[nH]c2ccccc12)c1ccncc1 | > 100
COc1cc(/C=N/N(C(=O)c2ccccc2)C(=O)c2ccncc2)ccc1O | > 20

Test system: Human alphaherpesvirus 2
Test: Antiviral activity against Human herpesvirus 2 strain G infected human HEL cells assessed as inhibition of virus-induced cytopathicity
Type: functional, organism-based
Conditions: Human alphaherpesvirus 2, strain G

Structure (SMILES) | EC50 [mg/L]
COc1cc(/C=N/NC(=O)c2ccncc2)cc(OC)c1OC | > 100
CSc1ccc(/C=N/NC(=O)c2ccncc2)cc1 | > 100
O=C(N/N=C/c1c[nH]c2ccccc12)c1ccncc1 | > 100
COc1cc(/C=N/N(C(=O)c2ccccc2)C(=O)c2ccncc2)ccc1O | > 100

Test system: Human respirovirus 3
Test: Antiviral activity against Human parainfluenza virus 3 infected Vero cells assessed as inhibition of virus-induced cytopathicity
Type: functional, organism-based
Conditions: Human respirovirus 3, Vero

Structure (SMILES) | EC50 [mg/L]
COc1cc(/C=N/NC(=O)c2ccncc2)cc(OC)c1OC | > 100
CSc1ccc(/C=N/NC(=O)c2ccncc2)cc1 | > 100
O=C(N/N=C/c1c[nH]c2ccccc12)c1ccncc1 | > 100
COc1cc(/C=N/N(C(=O)c2ccccc2)C(=O)c2ccncc2)ccc1O | > 100

Test system: Staphylococcus aureus
Test: Antimicrobial activity against Staphylococcus aureus after 24 hr by serial dilution method
Type: functional
Conditions: not given

Structure (SMILES) | -logMIC
CC(Cl)C(=O)NNC(=O)c1ccncc1 (stereo not given) | 2.26
COc1cc(/C=N/NC(=O)c2ccncc2)cc(OC)c1OC | 2.1
CSc1ccc(/C=N/NC(=O)c2ccncc2)cc1 | 2.04
O=C(N/N=C/c1c[nH]c2ccccc12)c1ccncc1 | 2.02
COc1cc(/C=N/N(C(=O)c2ccccc2)C(=O)c2ccncc2)ccc1O | 2.48

Test system: Punta Toro virus
Test: Antiviral activity against Punta Toro virus infected Vero cells assessed as inhibition of virus-induced cytopathicity
Type: functional, organism-based
Conditions: not given

Structure (SMILES) | EC50 [mg/L]
COc1cc(/C=N/NC(=O)c2ccncc2)cc(OC)c1OC | > 100
CSc1ccc(/C=N/NC(=O)c2ccncc2)cc1 | > 100
O=C(N/N=C/c1c[nH]c2ccccc12)c1ccncc1 | > 100
COc1cc(/C=N/N(C(=O)c2ccccc2)C(=O)c2ccncc2)ccc1O | > 100

Test system: Human immunodeficiency virus 2
Test: Antiviral activity against Human immunodeficiency virus type 2 (ISOLATE ROD) infected human MT4 cells assessed as inhibition of virus-induced cytopathicity
Type: functional, organism-based
Conditions: Human immunodeficiency virus 2, ISOLATE ROD

Structure (SMILES) | EC50 [mg/L]
CC(Cl)C(=O)NNC(=O)c1ccncc1 (stereo not given) | > 77.5
COc1cc(/C=N/NC(=O)c2ccncc2)cc(OC)c1OC | > 110
CSc1ccc(/C=N/NC(=O)c2ccncc2)cc1 | > 59
O=C(N/N=C/c1c[nH]c2ccccc12)c1ccncc1 | > 95
COc1cc(/C=N/N(C(=O)c2ccccc2)C(=O)c2ccncc2)ccc1O | > 105

Test system: Mammalian orthoreovirus 1
Test: Antiviral activity against Mammalian orthoreovirus 1 infected Vero cells assessed as inhibition of virus-induced cytopathicity
Type: functional, organism-based
Conditions: Mammalian orthoreovirus 1, Vero

Structure (SMILES) | EC50 [mg/L]
COc1cc(/C=N/NC(=O)c2ccncc2)cc(OC)c1OC | > 100
CSc1ccc(/C=N/NC(=O)c2ccncc2)cc1 | > 100
O=C(N/N=C/c1c[nH]c2ccccc12)c1ccncc1 | 2.4 (≈ 9.08 µM)
COc1cc(/C=N/N(C(=O)c2ccccc2)C(=O)c2ccncc2)ccc1O | > 100

Test system: Bacillus subtilis
Test: Antimicrobial activity against Bacillus subtilis after 24 hr by serial dilution method
Type: functional
Conditions: not given

Structure (SMILES) | -logMIC
CC(Cl)C(=O)NNC(=O)c1ccncc1 (stereo not given) | 1.96
COc1cc(/C=N/NC(=O)c2ccncc2)cc(OC)c1OC | 2.4
CSc1ccc(/C=N/NC(=O)c2ccncc2)cc1 | 2.04
O=C(N/N=C/c1c[nH]c2ccccc12)c1ccncc1 | 2.02
COc1cc(/C=N/N(C(=O)c2ccccc2)C(=O)c2ccncc2)ccc1O | 2.18

Test system: Aspergillus niger
Test: Antimicrobial activity against Aspergillus niger after 7 days by serial dilution method
Type: functional
Conditions: not given

Structure (SMILES) | -logMIC
CC(Cl)C(=O)NNC(=O)c1ccncc1 (stereo not given) | 2.26
COc1cc(/C=N/NC(=O)c2ccncc2)cc(OC)c1OC | 2.4
CSc1ccc(/C=N/NC(=O)c2ccncc2)cc1 | 2.34
O=C(N/N=C/c1c[nH]c2ccccc12)c1ccncc1 | 2.32
COc1cc(/C=N/N(C(=O)c2ccccc2)C(=O)c2ccncc2)ccc1O | 2.48
